In brackets after ≈: the same amount, converted by molar mass. Where two headings read alike, the source gives them in different places.
Key:
[1] = tested on: P. falciparum chloroquine-resistant (PfDd2); test: Antiplasmodial SYBR green I based fluorescence assay, chloroquine-resistant strain; type: cell-based; details: Plasmodium falciparum, read-out: PfDd2 IC50 ± SD
From the text: (§1) The cryopreserved chloroquine-sensitive (Pf3D7-(MRA-102)), the multi-resistant (PfDd2) of Plasmodium falciparum, and the promastigote form of Leishmania donovani strains were obtained from BEI Resources (https://www.beiresources.org/ (accessed on 16 February 2019)) and are routinely cultured at the Antimicrobial and Biocontrol Agents Unit, University of Yaoundé I.
(§2) Plasmodium falciparum strains were maintained in 60 mm sterile petri dishes containing complete RPMI 1640 medium [RPMI 1640 (Sigma Aldrich) supplemented with 0.2% sodium bicarbonate (Sigma Aldrich), 0.5% Albumax II (Gibco), 1% hypoxanthine 100X (Gibco, Billings, MT, USA), 25 mM HEPES, and 0.04% gentamicin (Sigma Aldrich)] with fresh O^+ erythrocytes of healthy human volunteers suspended at 4% haematocrit (v/v) and incubated at 37 °C in a 5% CO2 humidified atmosphere. The medium was replaced daily with fresh complete medium to propagate the culture. Ten percent (10%) Giemsa-stained thin blood smears were examined microscopically under immersion oil to monitor cell-cycle transition and parasitaemia.
(§3) A stock solution was prepared at 100 mg/mL for each extract and fraction and at 50 mg/mL for isolated compound in 100% DMSO (Sigma–Aldrich, Munich, Germany). Master plates were then prepared by mixing 2 μL of each stock solution with 198 μL of fresh incomplete RPMI 1 640 culture medium to yield a concentration of 1 mg/mL for extract and fraction and of 0.5 mg/mL (1% DMSO) followed by a 5-fold serial dilution. Extracts and fractions were tested at concentrations ranging from 0.16 to 100 μg/mL, and isolated compounds at concentrations ranging from 0.08 to 50 μg/mL.
(§4) The use of mixed-stage cultures can enable the test molecules to interact with all the three stages (ring, trophozoite, and schizont) found during a 48-h life cycle of P. falciparum in culture. Moreover, starting the experiment with a synchronized ring stage culture provides the advantage of monitoring the growth inhibitory effect of test samples without a rise-up in parasitemia during the ring–trophozoite–schizont transitions. For this particular reason, parasites were synchronized at the ring stage by serial treatment with 5 % sorbitol for two days prior to each experiment with respect to Lambros and Vanderberg, 1979 [44] protocol.
(§5) Drug sensitivity assay was carried out in 96-well microtitration plates using the SYBR green I based fluorescence assay (Smilkstein et al., 2004). […] The fact that human red blood host cells are anucleate allows the use of SYBR green for the proper monitoring of the growth of the malarial parasite.
(§6) The 96 wells flat-bottom assay plates with sorbitol-synchronized ring stage parasites (haematocrit: 1%, parasitaemia: 2%, 90 μL) were incubated in the presence of 10 µL of pre-diluted extracts, fractions, isolated compounds, and reference drugs [Chloroquine and Artemisinin (Sigma–Aldrich, Munich, Germany)] at different triplicate concentrations (100 µg/mL–0.16 µg/mL for extract/fractions and 50 µg/mL–0.08 µg/mL for compounds). After an incubation period of 72 h at 37 °C, 100 μL of the SYBR Green I solution prepared in a lysis buffer (0.2 µL of 10,000× SYBR Green I per mL of lysis buffer) consisting of Tris (20 mM; pH 7.5), EDTA (5 mM), saponin (0.008%; m/v), and Triton X-100 (0.08%; v/v) was added to each well, mixed twice gently with a multi-channel pipette, and incubated in the dark at 37 °C for 1 h. Fluorescence was measured using the microplate reader Infinite M200 (Tecan) at an excitation and emission wavelength of 485 and 538 nm, respectively. […] The data analysis was performed with GraphPad Prism 8.0 software, fitting by nonlinear regression, and concentration–response curves were generated to determine the median inhibitory concentration (IC50) for each sample.
The resistance index (RI) was determined as the ratio of the IC50 of the samples on the multi-resistant strain Dd2 and the IC50 on the chloroquine-sensitive strain 3D7 as reported by Douanla et al..

[2] = tested on: P. falciparum chloroquine-sensitive (Pf3D7); test: Antiplasmodial SYBR green I based fluorescence assay, chloroquine-sensitive strain; type: cell-based; details: Plasmodium falciparum, read-out: Pf3D7 IC50 ± SD
From the text: as §1, §2, §3, §4, §5, §6

[3] = In vitro cytotoxicity assay (resazurin) on Raw 264.7 macrophage cells; type: cell-based, murine; details: mouse
Procedure: RAW 264.7 cells were obtained from RIKEN BioResource Centre Cell Bank (Tsukuba, Japan) and cultured in Dulbecco’s modified Eagle medium (DMEM) containing 1% penicillin–streptomycin and 10% FBS under 5% CO2 and humidified atmosphere at 37 °C and sub-cultured every 72 h.
as §3
The murine macrophages, Raw 264.7 cells were grown in a T-25 cm^2 flask containing the complete Dulbecco’s modified Eagle’s medium (Sigma–Aldrich, Munich, Germany) supplemented with 10% FBS (Sigma–Aldrich, Munich, Germany), 1% non-essential amino acids, and 1% (v/v) penicillin–streptomycin (Sigma–Aldrich, Munich, Germany) and incubated at 37° in a humidified atmosphere containing 5% CO2. For the experiments, 80–90% confluent cell culture was trypsinized, counted using a Neubauer haemacytometer, and seeded into a 96-well cell culture treated flat-bottomed plate (SARSTEDT, Inc. Newton, NC 28658, USA) at a cell density of 10^4 cells/well. Plates were incubated overnight to allow cell adhesion. Cells were then treated with serially diluted concentrations of crude extract, fractions, and isolated compounds for 48 h. Podophyllotoxin (Sigma–Aldrich, Munich, Germany) was used as positive control with the highest concentration of 10 μM. Afterwards, 10 μL of resazurin solution (0.15 mg/mL prepared in PBS) was added to each well, and the plates were additionally incubated for 4 h. Of important note, resazurin is a nonfluorescent, nontoxic, and cell-permeable blue dye which is used to quantify cell viability following its conversion into the highly fluorescent pink dye resorufin in response to changes in the reducing environment within the cytosol of the cell. The level of fluorescence that positively correlates with cell viability was measured using a Magellan Infinite M200 plate reader (Tecan, Germany) at an excitation wavelength of 530 nm and an emission wavelength of 590 nm. The growth proliferation percentage of cells was calculated with respect to the negative control. The concentration–response curves were plotted using inhibitory percentages versus the logarithm of the drug concentration to determine the concentration of drug that reduces cell viability by 50% (CC50) using GraphPad Prism 8.0 software. Selectivity indices (SI) [SI = CC50/IC50] were determined for each inhibitor based on their antiparasitic activity (IC50) and cell cytotoxicity (CC50 on Raw cells). Samples with SI greater than 10 were classified as poorly toxic toward Raw cells.

[4] = tested on: L. donovani promastigotes 1S (MHOM/SD/62/1S); test: Antileishmanial resazurin fluorimetric assay on promastigotes; type: cell-based, Leishmania donovani; details: for IC50: Leishmania donovani
Procedure: as §1
Leishmania donovani promastiogtes were cultured in Medium 199 (Sigma, Darmstadt, Germany) supplemented with 10% Heat-Inactivated fetal Bovine Serum (HIFBS) (Sigma, Darmstadt, Germany) and 100 IU/mL penicillin/streptomycin. The culture was maintained in 75 cm^2 cell culture flask at 28 °C and sub-cultured every 72 h.
as §3
The antileishmanial activity of crude extracts, derived fractions, and isolated compounds against cultured L. donovani promastigotes was evaluated using the resazurin fluorimetric assay as described by Siqueira-Neto et al. (2010). Briefly, promastigotes from a logarithmic phase culture (4 × 10^5 cells/mL; 90 μL) were seeded in 96-well microplates and treated with 10 μL of inhibitors at different triplicate concentrations (100 µg/mL–0.16 µg/mL for extract/fractions and 50 µg/mL–0.08 µg/mL for compounds). Plates were incubated for 28 h at 28 °C, followed by the addition of […] resazurin (0.15 mg/mL in DPBS; Sigma, Darmstadt, Germany). The negative and positive controls were, respectively, 0.1% DMSO and amphotericin B (Sigma, Darmstadt, Germany) (10–0.016 μg/mL) treated wells. After an additional incubation for 44 h, plates were then read on a Magelan Infinite M200 fluorescence plate reader (Tecan, Männedorf, Switzerland) at excitation and emission wavelengths of 530 and 590 nm, respectively. For each sample, growth inhibition percentages were calculated with Microsoft Excel Software; then, from the nonlinear regression fit, concentration–response curves were generated to deduce the median inhibitory concentration (IC50) using the GraphPad Prism 8.0 software.

[5] = tested on: PfDd2; design: method as in PMID 34187456; details: from Hymenostegia afzelii and Endodesmia calophylloides; read-out: IC50 against PfDd2; cited from earlier work
[6] = tested on: Pf 3D7; design: method as in PMID 34187456; details: from Hymenostegia afzelii and Endodesmia calophylloides; read-out: IC50 against Pf 3D7; cited from earlier work
[7] = tested on: Leishmania donovani; design: method as in PMID 24802987, PMID 36399160; details: cited from earlier work
[8] = tested on: Leishmania donovani; design: method as in PMID 24802987, PMID 36399160; details: cited from earlier work; remark: listed apart in the source
[9] = tested on: leishmania promastigotes; design: method as in PMID 31085212; details: β-sitosterol from Ifloga spicata; cited from earlier work
[10] = chloroquine-resistant strain Dd2, 72 h
[11] = promastigotes, resazurin assay, read-out: L. donovani Promastigote IC50 ± SD
[12] = chloroquine-sensitive strain 3D7, 72 h
[13] = Raw 264.7 macrophages, 48 h treatment, resazurin, read-out: Cytotoxicity Raw Cells CC50 ± SD
[14] = read-out: L. donovani Promastigote IC50 ± SD, promastigotes, resazurin assay

Row | Structure (SMILES) | IC50 ([1]; DD2, 72 h) | IC50 ([2]; 3D7, 72 h) | CC50 at 48 h [3] [µg/mL] | IC50 [1, 10] [µg/mL] | IC50 [4, 11] [µg/mL] | IC50 [2, 12] [µg/mL] | also measured
1 | CCN(CC)CCCC(C)Nc1ccnc2cc(Cl)ccc12 (stereo not drawn) [Chloroquine, reference compound] | 21.7 ± 0.25 µM | 0.85 ± 0.01 µM | – | – | – | – | –
2 | CCCCCCCC=CCCCCCCCCCCCCCC(O)C(O)C(COC1OC(CO)C(O)C(O)C1O)NC(=O)C(O)CCCCCCCCCCCCCC [Antroklaicerebroside (1), (2S,3S,4R,2′R,18E)N-((-3,4-dihydroxy-β-D-gluco-pyranosyl)oxy)hexacos-18-en-2-yl)-2-hydroxyhexadecanamide] | – | – | > 500 | > 50 | 6.19 ± 0.79 (≈ 7.33 µM) | 42.04 ± 0.08 | melting point: 184 to 186 °C
3 | CC[C@H](/C=C/[C@@H](C)[C@H]1CC[C@H]2[C@@H]3CC=C4C[C@@H](O)CC[C@]4(C)[C@H]3CC[C@]12C)C(C)C [Stigmasterol (6), stigmasterol] | > 50 µg/mL | > 50 µg/mL | – | – | – | – | CC50 at 48 h [3, 13]: > 500 µg/mL; IC50 [4, 14]: 8.07 ± 0.9 µg/mL (≈ 19.6 µM); L. donovani Promastigote IC50 ± SD ([4]; promastigotes, resazurin assay): 9.14 ± 0.96 µg/mL
4 | COc1c(O)cc2c(=O)oc3c(OC)c(O)cc4c(=O)oc1c2c34 [3,3′-Dimethylellagic acid (4), 3,3′-dimethylellagic acid] | – | – | > 500 | > 50 | 8.07 ± 0.9 (≈ 24.4 µM) | > 50 | IC50 [5]: 1360 nM; IC50 [6]: 4270 nM
5 | O=c1oc2c(O)c(O)cc3c(=O)oc4c(O)c(O)cc1c4c23 [ellagic acid] | – | – | – | – | – | – | in vitro effect against Leishmania donovani [7]: exhibited an in vitro effect; parasitemia in in vivo antileishmanial mouse model [8]: significatively reduced parasitemia
6 | CC[C@H](CC[C@@H](C)[C@H]1CC[C@H]2[C@@H]3CC=C4C[C@@H](O)CC[C@]4(C)[C@H]3CC[C@]12C)C(C)C [β-sitosterol (5), β-sitosterol] | > 50 µg/mL | 45.3 ± 1.66 µg/mL | – | – | – | – | CC50 at 48 h [3, 13]: > 500 µg/mL; IC50 [4, 14]: 5.56 ± 0.74 µg/mL (≈ 13.4 µM); IC50 against leishmania promastigotes [9]: 9.2 ± 0.06 µg/mL (≈ 22.2 µM)
7 | O=c1ccc2cc(O)c(O)cc2o1 [Esculetin (2), 6,7-dihydroxycoumarin] | – | – | > 500 | 9.3 ± 0.29 | > 50 | 45.57 ± 0.08 | –
8 | C[C@@H]1CC[C@H]2[C@@H](C)C(=O)O[C@@H]3O[C@@]4(C)CC[C@@H]1[C@]32OO4 [Artemesin, Artemisinin, reference compound] | – | – | – | – | – | – | IC50 ([1]; chloroquine-resistant strain Dd2, 72 h, reference drugs in µM): 23.7 ± 0.24 µM; IC50 ([2]; chloroquine-sensitive strain 3D7, 72 h, reference drugs in µM): 0.02 µM
9 | C[C@@H]1[C@H](O)[C@@H](C)/C=C/C=C/C=C/C=C/C=C/C=C/C=C/[C@H](O[C@@H]2O[C@H](C)[C@@H](O)[C@H](N)[C@@H]2O)C[C@@H]2O[C@](O)(C[C@@H](O)C[C@@H](O)[C@H](O)CC[C@@H](O)C[C@@H](O)CC(=O)O[C@H]1C)C[C@H](O)[C@H]2C(=O)O [Amphotericin B, amphotericin B, reference compound] | – | – | – | – | 2.9 ± 0.46 (≈ 3.14 µM) | – | –
10 | COc1cc([C@@H]2c3cc4c(cc3[C@H](O)[C@H]3COC(=O)[C@H]23)OCO4)cc(OC)c1OC [Podophyllotoxin, reference compound] | – | – | – | – | – | – | CC50 at 48 h ([3]; Raw 264.7 macrophages, positive control, unit µM, read-out: Cytotoxicity Raw Cells CC50 ± SD): 0.71 ± 0.2 µM

— paper PMC10059057, “Antileishmanial and Antiplasmodial Activities of Secondary Metabolites from the Root of Antrocaryon klaineanum Pierre (Anacardiaceae)” (Molecules, 2023)
